Tested on: OVCAR5 cells
Assay: OVCAR5 apoptosis by annexin-V and 7AAD staining
Type: cell-based, human
Description: Cell viability Annexin V/7AAD: To detect apoptosis, tumor cells were stained with annexin V/7AAD (BD Pharmingen #559763). Apoptotic cells were analyzed by flow cytometry according to the manufacturer's protocol. Briefly, OVCAR5 cells grown and subjected to different treatments were collected and pelleted at 1200 rpm and then washed twice with ice-cold PBS and re-suspended in a binding buffer (Pharmingen #51-66121 E) at a concentration of 1×10^6 cells/mL; 100 μL of the solution (1×10^5 cells) was transferred to each of two 5-mL culture tubes. Five μL of annexin V-PE (Pharmingen #51-65875Y) and added to each 100 μL solution, gently vortexed, incubated for 15 min at room temperature in the dark, washed with PBS, incubated with 5 μL of 7AAD (BD Pharmingen #51-68981E) for 10 minutes, and analyzed by FACS within 1 h.
Besides tumor-specific CTLs, TLR8 activation may also invoke innate anti-tumor responses, including the release of soluble mediators such as members of the TNF family, which can act directly on tumor cells to induce apoptosis. […] Expression of the TNFα receptor 1 (TNFR1) in OVCAR5 cells was tested and documented by Western blot (FIG. 5C). During the sensitivity test of OVCAR5 cells to TNFα, cells were incubated for 24 hours with 20 ng/ml of TNFα, a dose that exerts direct cytotoxic effects. […]

**Q.** Which “TNFα-mediated apoptosis of OVCAR5 cells” value (20 ng/ml TNFα, 24 hours) does the source give for TNFα here?
**A.** The value was “resistant to TNFα-mediated apoptosis”.

**Q.** And the “apoptosis of OVCAR5 cells” value (PLD 1 μg/mL 24 h pre-incubation, then TNFα 20 ng/ml 12 h, or control media)?
**A.** The value was “minimal apoptosis”.

— patent publication US20120219615A1, “Therapeutic Use of a TLR Agonist and Combination Therapy” (The Trustees of the University of Pennsylvania, priority 2010, published 2012)
